Experimental data reported in ChEMBL document CHEMBL1127201, “Biological activity of 3-aminopropyl (methyl) phosphinic acid, a potent and selective GABAB agonist with CNS activity” (Bioorg Med Chem Lett, 1993).

Target: GABA B receptor (Rattus norvegicus, UniProt O88871+Q9Z0U4)
Assay: In vitro displacement of [3H]GABA from Gamma-aminobutyric acid type B receptor sites in rat brain membranes
Assay type: cell membranes

Chain of GABA B receptor (Q9Z0U4 whole entry): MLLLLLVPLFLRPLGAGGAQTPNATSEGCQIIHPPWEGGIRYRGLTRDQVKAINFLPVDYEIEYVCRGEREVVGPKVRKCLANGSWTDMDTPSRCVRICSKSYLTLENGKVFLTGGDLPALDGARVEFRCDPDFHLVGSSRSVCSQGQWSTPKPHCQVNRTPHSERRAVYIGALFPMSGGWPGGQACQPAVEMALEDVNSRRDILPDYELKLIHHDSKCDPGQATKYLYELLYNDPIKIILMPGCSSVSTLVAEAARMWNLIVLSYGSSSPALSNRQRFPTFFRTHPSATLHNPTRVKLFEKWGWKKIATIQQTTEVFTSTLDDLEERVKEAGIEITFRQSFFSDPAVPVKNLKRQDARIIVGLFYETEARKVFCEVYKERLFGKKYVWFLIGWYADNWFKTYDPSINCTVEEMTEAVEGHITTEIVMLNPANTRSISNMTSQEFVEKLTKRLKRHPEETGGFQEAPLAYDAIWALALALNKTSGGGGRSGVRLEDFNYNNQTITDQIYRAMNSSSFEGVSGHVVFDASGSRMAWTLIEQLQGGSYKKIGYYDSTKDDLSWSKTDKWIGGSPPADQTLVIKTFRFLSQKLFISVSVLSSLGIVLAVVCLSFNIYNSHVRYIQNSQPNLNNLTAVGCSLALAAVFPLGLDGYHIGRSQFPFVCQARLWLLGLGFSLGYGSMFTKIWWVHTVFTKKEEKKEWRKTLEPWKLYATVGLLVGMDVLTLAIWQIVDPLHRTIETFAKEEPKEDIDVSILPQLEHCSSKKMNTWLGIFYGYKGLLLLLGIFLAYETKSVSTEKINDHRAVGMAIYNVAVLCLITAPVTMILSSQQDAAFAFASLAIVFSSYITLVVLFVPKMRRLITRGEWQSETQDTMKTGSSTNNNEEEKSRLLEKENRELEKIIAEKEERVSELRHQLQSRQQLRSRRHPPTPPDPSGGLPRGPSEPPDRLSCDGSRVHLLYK
Chain of GABA B receptor (O88871 whole entry): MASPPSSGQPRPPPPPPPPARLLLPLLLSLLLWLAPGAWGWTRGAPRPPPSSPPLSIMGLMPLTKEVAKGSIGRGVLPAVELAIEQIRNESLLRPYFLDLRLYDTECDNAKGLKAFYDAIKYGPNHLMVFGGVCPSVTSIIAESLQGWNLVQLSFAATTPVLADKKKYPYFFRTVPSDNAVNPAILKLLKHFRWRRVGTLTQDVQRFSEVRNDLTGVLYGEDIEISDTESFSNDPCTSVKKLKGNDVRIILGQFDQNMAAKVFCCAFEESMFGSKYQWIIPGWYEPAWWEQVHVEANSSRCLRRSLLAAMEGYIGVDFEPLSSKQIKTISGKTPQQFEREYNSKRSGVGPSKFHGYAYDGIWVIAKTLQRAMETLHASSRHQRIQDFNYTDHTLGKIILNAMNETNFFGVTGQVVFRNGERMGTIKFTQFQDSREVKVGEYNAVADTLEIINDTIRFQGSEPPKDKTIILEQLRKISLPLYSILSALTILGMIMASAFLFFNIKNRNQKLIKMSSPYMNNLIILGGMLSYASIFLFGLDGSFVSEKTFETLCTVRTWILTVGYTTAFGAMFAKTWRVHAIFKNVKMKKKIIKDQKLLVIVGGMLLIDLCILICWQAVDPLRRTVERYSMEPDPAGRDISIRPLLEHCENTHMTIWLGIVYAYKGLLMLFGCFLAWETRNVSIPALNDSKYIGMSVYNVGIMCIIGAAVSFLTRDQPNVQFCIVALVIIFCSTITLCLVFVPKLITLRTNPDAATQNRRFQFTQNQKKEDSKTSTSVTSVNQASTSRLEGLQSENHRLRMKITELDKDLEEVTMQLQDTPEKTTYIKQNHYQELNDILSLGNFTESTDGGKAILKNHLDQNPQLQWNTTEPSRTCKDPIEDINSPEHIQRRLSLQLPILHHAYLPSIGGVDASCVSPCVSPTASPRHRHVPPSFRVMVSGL

Compound `NCCC[PH](=O)O` has an IC50 of 3 nM.
`CCCCCCP(=O)(O)CCCN` showed an IC50 of 1000 nM.
`NCCCP(=O)(O)O` was tested, and the IC50 was 2000 nM.
Compound `CCP(=O)(O)CCCN` has an IC50 of 3000 nM.
Compound `NCCOS(=O)(=O)O` has an IC50 of over 100000 nM.
In the case of `CCOC(OCC)P(=O)(O)CCCN`, the IC50 is reported as 2500 nM.
`NCCOP(=O)(O)O` [PHOSPHORYLETHANOLAMINE] gave an IC50 of over 100000 nM.
For `NCCCS(=O)(=O)O` [TRAMIPROSATE], the IC50 was 2000 nM.
